Earlier results as cited in PMC10356740 (Journal of sleep research, 2023).
pEC50: −log10 of the molar value.

How the values were obtained:
[1] = test system: orexin/ataxin-3 mice; details: chronic dosing for up to 14 days; ref Ishikawa et al., 2020; cited from earlier work
[2] = test system: OX1R; details: OX2R over OX1R; ref Kimura et al., 2019; cited from earlier work
[3] = test system: OX2R; details: read-out: EC50 on OX2R; ref Kimura et al., 2019; cited from earlier work
[4] = test system: wild-type mice; details: oral, 5h into the light period, normal sleep phase; ref Ishikawa et al., 2019; cited from earlier work
[5] = test system: Hcrt-neuron ablated mice; details: ref Kimura et al., 2019; cited from earlier work
[6] = Phase 2; led Takeda to suspend dosing; cited from earlier work

CC(C)(O)C(=O)N1CC[C@H](NS(C)(=O)=O)[C@@H]1Cc1cccc(-c2cc(F)cc(F)c2)c1F.CC(C)(O)C(=O)N1CC[C@H](NS(C)(=O)=O)[C@@H]1Cc1cccc(-c2cc(F)cc(F)c2)c1F.O.O.O [TAK-994]
Sleep rebound [1]: without causing a sleep rebound | Wakefulness after chronic dosing [1]: wake-promoting effects | selectivity against OX1R [2]: > 700 fold | pEC50 [3]: 7.72 | Wakefulness [4]: promoted wakefulness | Cataplectic episodes [5]: suppressing cataplectic episodes | Time spent in wake [5]: increased time spent in wake | Wake maintenance [5]: improved wake maintenance | Safety [6]: a safety signal emerged
